Assay results taken from patent publication US8067432B2, “Liposomal, ring-opened camptothecins with prolonged, site-specific delivery of active drug to solid tumors” (University of Kentucky Research Foundation, priority 2008, dated 2011).

Experiments:
[1] = Lactone/carboxylate equilibrium in aqueous solution at physiological pH; format: physicochemical; details: physiological pH (7.4)
[2] = Lactone/carboxylate form and lactone half-life in plasma; format: in vitro ADME, rat
[3] = compared with FDA approved camptothecin analogs (e.g., Camptosar and Hycamtin); cited from earlier work

Compound | Fraction in the carboxylate form [1] | Fraction in lactone (active) form ([2]; in plasma) | half-life ([2]; rat plasma) | Potency in in vitro cytotoxicity assays [3]
CC[C@@]1(O)C(=O)OCc2c1cc1n(c2=O)Cc2cc3ccccc3nc2-1 [camptothecin] | approximately 70% | ~30% | ~40 min | 
CC[C@@]1(O)C(=O)OCc2c1cc1n(c2=O)Cc2c-1nc1ccc(O)cc1c2[Si](C)(C)C(C)(C)C [DB-67, 7-t-butyldimethylsilyl-10-hydroxycamptothecin] |  |  |  | at least comparable potency
